Measurements from US11866689B2, “Splice-switching oligonucleotides and methods of use” (Duke University, priority 2018, dated 2024).

How the values were obtained:
Format in all cases: cell-based
[1] = system: full length AR; assay: Full length AR level after morpholino treatment of LN95 cells (RT-qPCR); details: 0-2.5 uM in complete media, 72 h, FIG. 6B
Protocol: (§1) Briefly, LN95 cells were seeded in a 12 well plate in complete media (RPMI+10% charcoal stripped FBS) at 250,000 cells per well and incubated at 37 C and 5% CO2 in a humidified incubator. After 24 hours, 0, 0.5, 1, 1.5, 2, or 2.5 uM of ARv7 morph 1 morpholino or control morpholino was diluted in complete media and added to each well. After 72 additional hours of incubation, media was removed and cells were collected in RNA lysis buffer.
(§2) RNA was extracted using the Quick-RNA Miniprep kit (Zymo Research) following manufacturer's protocol. RNA was eluted in water and quantified using a Qubit fluorometer (Thermo Fisher). Reverse transcription (RT) reactions were performed using the ABI High Capacity cDNA Reverse Transcription Kit (Thermo Fisher) using 1 ug of RNA. RT reactions were incubated following manufacturer's protocol in a SimpliAmp thermocycler (Life Technologies). […] Fold Change from Scramble was calculated using the 2^-ΔΔCT method with TBP as the housekeeping gene and the control morpholino as the treatment control.

[2] = system: ARv7; assay: ARv7 level after morpholino treatment of LN95 cells (RT-qPCR); details: 0-2.5 uM in complete media, 72 h, FIG. 6A
Protocol: as §1, §2

[3] = system: ARv7; assay: ARv7 level after SSO transfection of prostate cancer cells (RT-qPCR, Western blot); details: for ARv7 (fold change from Scramble): vs Scramble/Scr control
Protocol: A total of 6.25, 25, 100, or 400 nM of ARv7 SSO-6, 100 nM of ARv7 SSO-6ext, or 100 or 400 nM of Scrambled SSO was diluted in Opti-MEM and mixed with 2 uL Dharmafect 1 (LN95) or RNAiMax (VCaP) diluted in Opti-MEM for a total of 200 uL. The SSO-transfection reagent mixtures were incubated for 10 minutes at room temperature followed by plating in a 12 well plate. A total of 250,000 cells diluted in 800 uL Optimem were seeded atop the SSO-transfection reagent mixtures and incubated for 4 hours at 37° C. and 5% CO2 in a humidified incubator. Media was replaced with complete media after 4 hours (RPMI+10% charcoal stripped FBS for LN95 cells and DMEM+10% FBS for VCaP cells). After an additional 72 or 96 hours of incubation, media was removed and cells were collected in RNA lysis buffer or RIPA buffer containing protease inhibitor (Thermo Fisher).
RNA was extracted using the Quick-RNA Miniprep kit (Zymo Research) following manufacturer's protocol. RNA was eluted in water and quantified using a Qubit fluorometer (Thermo Fisher). Reverse transcription (RT) reactions were performed using the ABI High Capacity cDNA Reverse Transcription Kit (Thermo Fisher) using 1 ug of RNA. RT reactions were incubated following manufacturer's protocol in a SimpliAmp thermocycler (Life Technologies). […] RT-qPCR was run on a ViiA7 Real-Time PCR System (Applied Biosystems) using the following conditions: 95° C. for 2 minutes, 40×(95 C for 1 second, 60° C. for 20 seconds). Fold Change from Scramble was calculated using the 2^-ΔΔCT method with TBP as the housekeeping gene and the Scrambled SSO as the treatment control.
RNA was extracted using the Quick-RNA Miniprep kit (Zymo Research) following manufacturer's protocol. RNA was eluted in water and quantified using a Qubit fluorometer (Thermo Fisher). […] Fold Change from Scramble was calculated using the 2^-ΔΔCT method with TBP as the housekeeping gene and the Scrambled SSO as the treatment control.

[4] = system: ARv9; assay: ARv9 level after SSO transfection of prostate cancer cells; details: prostate cancer cell lines LN95, VCaP; 6.25-400 nM transfected; vs Scramble/Scr control; FIG. 2
Protocol: (§3) For FIGS. 2 and 3, the experimental methods is described briefly. A total of 6.25, 25, 100, or 400 nM of ARv7 SSO-6, 100 nM of ARv7 SSO-[…], or 100 or 400 nM of Scrambled SSO was diluted in Opti-MEM and mixed with 2 uL Dharmafect 1 (LN95) or RNAiMax (VCaP) diluted in Opti-MEM for a total of 200 uL. The SSO-transfection reagent mixtures were incubated for 10 minutes at room temperature followed by plating in a 12 well plate. A total of 250,000 cells diluted in 800 uL Optimem were seeded atop the SSO-transfection reagent mixtures and incubated for 4 hours at 37° C. and 5% CO2 in a humidified incubator. Media was replaced with complete media after 4 hours (RPMI+10% charcoal stripped FBS for LN95 cells and DMEM+10% FBS for VCaP cells). After an additional 72 or 96 hours of incubation, media was removed and cells were collected in RNA lysis buffer or RIPA buffer containing protease inhibitor (Thermo Fisher). […] RNA was eluted in water and quantified using a Qubit fluorometer (Thermo Fisher). […] Fold Change from Scramble was calculated using the 2^-ΔΔCT method with TBP as the housekeeping gene and the Scrambled SSO as the treatment control. Protein samples were quantified using a Bradford assay (Pierce Scientific) and 25 ug of each cell extract was mixed with SDS sample buffer and submitted to SDS-PAGE. […]

[5] = system: full length AR; assay: Full length AR level after SSO transfection of prostate cancer cells (RT-qPCR, Western blot); details: prostate cancer cell lines LN95, VCaP; 6.25-400 nM transfected; vs Scramble/Scr control; FIG. 2
Protocol: as §3

[6] = system: LN95 cells; assay: Prostate cancer cell proliferation (Incucyte % confluence) after SSO transfection; details: 100 nM, transfected twice, 7 days, −/+ enzalutamide, vs Scr, FIG. 4
Protocol: As depicted in FIG. 4, ARv7 SSO-6 inhibits prostate cancer cell (LN95) proliferation. Briefly, a total of 100 nM of ARv7 SSO-6 or 100 nM of Scrambled SSO was diluted in Opti-MEM and mixed with 2 uL Dharmafect 1 for a total of 200 uL. The SSO-transfection reagent mixtures were incubated for 10 minutes at room temperature followed by plating in a 12 well plate. A total of 250,000 LN95 cells diluted in 800 uL Optimem were seeded atop the SSO-transfection reagent mixtures and incubated for 4 hours at 37 C and 5% CO2 in a humidified incubator. Media was replaced with complete media after 4 hours (RPMI+10% charcoal stripped FBS). 72 hours later cells were lifted using 0.25% trypsin and the transfection procedure was repeated. 4 hours after transfection media was replaced with complete media and cells were gently resuspended by pipetting up and down. Cells were then seeded in to a 96 well plate at 10,000 cells/well and the plate was placed in to the Incucyte S3 live cell imager (Essen Bioscience) and incubated at 37° C. and 5% CO2 for 7 days. % confluence was calculated once per day and fold change from 0 hr was calculated for each time point.

TTGCCAACCCGGAATTTTTCTAGTATGA (all phosphorodiamidate morpholino (PMO)) [ARv7 morph 1]
full length AR [1]: maintenance | ARv7 (fold change from control morpholino) [2]: dose-dependent decrease

mC*mA*mG*mC*mC*mT*mT*mT*mC*mT*mT*mC*mA*mG*mG*mG*mT*mC (CAGCCTTTCTTCAGGGTC; all 2'-O-methyl, all phosphorothioate, T or U not given here) [Arv7 Cons1]
ARv7 RNA (fold change from Scramble) ([3]; LN95, 12.5, 25, 50 nM transfected, 72 h, vs Scrambled SSO, FIG. 5): decreases ARv7 RNA in a dose-dependent manner

mG*mC*mC*mA*mA*mC*mC*mC*mG*mG*mA*mA*mU*mU*mU*mU*mU*mC [ARv7 SSO-6]
ARv9 [4]: maintenance | ARv7 (fold change from Scramble) ([3]; prostate cancer cell lines LN95, VCaP, 6.25, 25, 100, 400 nM transfected, 72 or 96 h, FIG. 2): dose dependent decrease | full length AR [5]: maintenance | prostate cancer cell proliferation (% confluence, fold change from 0 hr) [6]: inhibits

mG*mC*mC*mA*mA*mC*mC*mC*mG*mG*mA*mA*mU*mU*mU*mU*mU*mC* mU*mA*mG*mU [ARv7 SSO-6ext]
ARv7 (fold change from Scramble) ([3]; LN95, 100 nM transfected, FIG. 3): decrease
